Earlier results as cited in US11096912B2, “Valaciclovir and celecoxib combination for functional somatic syndromes” (INNOVATIVE MED CONCEPTS, LLC, priority 2012, dated 2021).

Tested on: fibromyalgia patients
Settings: valacyclovir alone; J. Rheumatology (2004) 31, 783-784

SMILES: CC(C)[C@H](N)C(=O)OCCOCn1cnc2c(=O)[nH]c(N)nc21 [valacyclovir]
- treatment of fibromyalgia patients: not successful
